Assay results taken from patent US20100143459A1, “PHARMACEUTICAL DOSAGE FORM FOR ORAL ADMINISTRATION OF TYROSINE KINASE INHIBITOR” (ABBOTT GMBH & CO. KG, priority 2006, published 2010).

Assay: Pharmacokinetics in humans after a 10 mg tablet under fasting conditions
Assay type: in vivo
Conditions: human patients, single 10 mg oral dose, mean±SD
Description: Tablets containing a 10 mg dose of ABT-869 ethanolate, as prepared above, were administered to 11 patients in the morning with 240 mL of water under fasting conditions (defined as no food or drink consumption except water and concomitant medications for 2 hours prior to dosing). Following dosing, 4-mL blood samples were collected for pharmacokinetic analyses at the following times: 0 (pre-dose), 1, 3, 4, 6, 8, 24 and 48 hours. These samples were analyzed for ABT-869 plasma concentrations using Liquid Chromatography/Tandem Mass Spectrometry (LCMS/MS). The lower limit of quantification (LLOQ) for the assay was 1.1 ng/mL.
Pharmacokinetic parameters including the maximum observed plasma concentration (Cmax), time to Cmax (Tmax), the area under the plasma concentration-time curve (AUC) from 0 to time of the last measurable concentration (AUC0-48) and AUC from 0 to infinite time (AUCoo) were determined by non-compartmental methods using WinNonlin Professional version 5.2 software.

## Cc1ccc(F)c(NC(=O)Nc2ccc(-c3cccc4[nH]nc(N)c34)cc2)c1 [ABT 869, N-[4-(3-amino-1H-indazol-4-yl)phenyl]-N′-(2-fluoro-5-methylphenyl)-urea]
  AUC0-48 per mg of dose: about 0.40±0.10 μg·h/mL/mg
  AUCoo per mg of dose: about 0.55±0.17 μg·h/mL/mg
  Cmax per mg of dose: about 0.023±0.004 μg/mL/mg
plasma
  Tmax: ~2.8 h
